The IC50 is the concentration that inhibits the measured activity by half.

Among the data in patent US7030138B2, “Benzamidine derivatives” (Sankyo Company, Limited, priority 2001, dated 2006) are IC50 values, retold here.

One experiment addresses T1, human factor-Xa (Homo sapiens, UniProt P00742).
T1 construct: purchased Cosmobio Co., Ltd
In words: Determination of anti-factor Xa activity (S-2222 coloring substrate, absorbance at 405 nm). It is filed as biochemical. As to conditions: human factor-Xa 0.25 unit/ml, S-2222 0.4 mM, Tris buffer pH 8.4, room temperature, 5 minutes; read-out: Inhibitory Action against Factor Xa Activity (IC50 (nM)). How it is done: Determination of Anti-factor Xa Activity
Anti-factor Xa activity was determined according to methods described by Hara et al. [Thrombo. Haemost., 71, 314 (1994)], which were slightly modified. S-2222, a coloring substrate (0.4 mM, Daiichi Pure Chemicals Co., Ltd.) and the test compounds were mixed in Tris hydrochloride buffered solution (50 mM, pH: 8.4) containing NaCl (0.9%). To this solution, human factor-Xa (0.25 unit/ml, Cosmobio Co., Ltd.) was added and the reaction was started. In the control group, distilled water was added to the Tris-buffered solution instead of the test compound. The reaction mixture (in total: 0.1 ml) was incubated at room temperature for 5 minutes. Optical absorbance of the reaction mixture was continuously determined at 405 nm with a 96-well microplate reader (Model 550, Biorad) and increase in the absorbance for 5 minutes was calculated as an indicator of factor Xa activity. To assess anti-factor Xa activities of the test compounds, concentrations of the test compounds to inhibit the factor Xa activity by 50% (IC50) were calculated.

A further experiment addresses T2, bovine trypsin (Bos taurus, UniProt P00760).
T2 construct: purchased Sigma
T2 sequence (P00760 24-246): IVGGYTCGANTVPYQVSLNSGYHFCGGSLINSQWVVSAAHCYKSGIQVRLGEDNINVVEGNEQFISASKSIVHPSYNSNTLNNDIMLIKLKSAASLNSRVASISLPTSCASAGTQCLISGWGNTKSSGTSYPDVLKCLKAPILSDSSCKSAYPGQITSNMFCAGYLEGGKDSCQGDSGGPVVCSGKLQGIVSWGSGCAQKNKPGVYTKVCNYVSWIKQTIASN
Put plainly: Determination of anti-trypsin activity (S-2222 coloring substrate, absorbance at 405 nm). In kind it is biochemical. As to conditions: bovine trypsin 0.25 μg-protein/ml, S-2222 0.4 mM, Tris buffer pH 8.4, room temperature, 5 minutes; read-out: Inhibitory Action against Trypsin Activity (IC50 (nM)). The method, then:
Determination of Anti-trypsin Activity
Anti-trypsin activity was determined according to methods described by Taniuchi et al. [Thromb. Haemost., 79, 543 (1998)], which were partially modified. S-2222, a coloring substrate (5 μl, final concentration: 0.4 mM, Daiichi Pure Chemicals Co., Ltd.) and the test compound (5 μl) were mixed with Tris hydrochloride buffered solution (50 mM, 85 μl, pH: 8.4) containing NaCl (0.9%). To this solution, bovine trypsin (5 μl, final concentration: 0.25 μg-protein/ml, Sigma) was added and the reaction was started. In the control group, distilled water was added to the Tris-buffered solution instead of the test compound. The reaction mixture (in total: 0.1 ml) was incubated at room temperature. Optical absorbance was continuously determined at 405 nm with a 96-well microplate reader (Model 550, Biorad) and increase in the absorbance for 5 minutes was calculated as an indicator of trypsin activity. To assess anti-trypsin activities of the test compounds, concentrations of the test compounds to inhibit the trypsin activity by 50% (IC50) were calculated.

SMILES strings stand for the structures. Counter-ions that a name gives are not always drawn.

T1 sequence (P00742 235-488 limits assumed): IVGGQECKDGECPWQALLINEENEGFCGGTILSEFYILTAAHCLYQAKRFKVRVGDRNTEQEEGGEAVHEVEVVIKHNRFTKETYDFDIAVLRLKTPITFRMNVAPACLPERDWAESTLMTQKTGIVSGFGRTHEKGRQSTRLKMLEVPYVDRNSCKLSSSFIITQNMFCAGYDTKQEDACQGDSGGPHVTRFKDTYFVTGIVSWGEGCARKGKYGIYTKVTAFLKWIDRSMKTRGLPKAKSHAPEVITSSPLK
T1 sequence (P00742 41-179 partner limits assumed): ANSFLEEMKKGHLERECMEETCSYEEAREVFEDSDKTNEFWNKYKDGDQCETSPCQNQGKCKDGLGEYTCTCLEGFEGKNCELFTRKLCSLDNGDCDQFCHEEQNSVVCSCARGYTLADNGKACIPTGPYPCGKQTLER

Take `CCOC(=O)CS(=O)(=O)N(C/C=C/c1cccc(C(=N)N)c1)c1ccc(OC2CCN(c3ccncc3)CC2)c(Cl)c1` [Example 27, Ethyl N-[3-(3-amidinophenyl)-2-(E)-propenyl]-N-[3-chloro-4-[1-(4-pyridyl)piperidin-4-yloxy]phenyl]sulfamoylacetate dihydrochloride]: the figures for the IC50 on human factor-Xa and on bovine trypsin were 7.9 nM and 540 nM, respectively.

Consider `N=C(N)c1cccc(/C=C/CN(c2ccc(OC3CCN(c4ccncc4)CC3)c(Cl)c2)S(=O)(=O)CC(=O)O)c1` [Example 28, N-[3-(3-Amidinophenyl)-2-(E)-propenyl]-N-[3-chloro-4-[1-(4-pyridyl)piperidin-4-yloxy]phenyl]sulfamoylacetic acid dihydrochloride], for which the half-inhibitory concentration (IC50) on human factor-Xa stood at 6.4 nM; on bovine trypsin it was 650 nM. The like results for `N=C(N)c1cccc(/C=C/CN(c2ccc(OC3CCN(C4=NCCO4)CC3)c(Cl)c2)S(=O)(=O)CC(=O)O)c1` [Example 89, N-[3-(3-Amidinophenyl)-2-(E)-propenyl]-N-[3-chloro-4-[1-(4,5-dihydrooxazol-2-yl)piperidin-4-yloxy]phenyl]sulfamoylacetic acid dihydrochloride] were, in that order, 11 nM and 2000 nM.

Consider `CCOC(=O)CS(=O)(=O)N(C/C=C/c1cccc(C(=N)N)c1)c1ccc(OC2CCN(C3=NCCC3)CC2)c(Cl)c1` [Example 53, Ethyl N-[3-(3-amidinophenyl)-2-(E)-propenyl]-N-[3-chloro-4-[1-(4,5-dihydro-3H-pyrrol-2-yl)piperidin-4-yloxy]phenyl]sulfamoylacetate dihydrochloride], for which the IC50 on human factor-Xa was 6.8 nM; at bovine trypsin, 2100 nM.

As to `CC/N=C/N1CCC(Oc2ccc(N(C/C=C/c3cccc(C(=N)N)c3)S(=O)(=O)CC(=O)O)cc2Cl)CC1` [Example 87, N-[3-(3-Amidinophenyl)-2-(E)-propenyl]-N-[3-chloro-4-[1-(N-ethylformimidoyl)piperidin-4-yloxy]phenyl]sulfamoylacetic acid dihydrochloride], the concentration for half-maximal inhibition (IC50) at human factor-Xa was found to be 13 nM; at bovine trypsin it was 3500 nM. The like results for `CCOC(=O)CS(=O)(=O)N(C/C=C/c1cccc(C(=N)N)c1)c1ccc(OC2CCN(C3=NCCC3)CC2)c(C)c1` [Example 65, Ethyl N-[3-(3-amidinophenyl)-2-(E)-propenyl]-N-[4-[1-(4,5-dihydro-3H-pyrrol-2-yl)piperidin-4-yloxy]-3-methylphenyl]sulfamoylacetate dihydrochloride] were, in that order, 12 nM and 2300 nM. The matching figures for `N=CN1CCC(Oc2ccc(N(C/C=C/c3cccc(C(=N)N)c3)S(=O)(=O)CC(=O)O)cc2Cl)CC1` [Example 48, N-13-(3-Amidinophenyl)-2-(E)-propenyl]-N-[3-chloro-4-(1-formimidoylpiperidin-4-yloxy]phenyl]sulfamoylacetic acid dihydrochloride]: 5.8 nM and 1200 nM. The like results for `N=C(N)c1cccc(/C=C/CN(c2ccc(OC3CCN(C4=NCCC4)CC3)c(C(N)=O)c2)S(=O)(=O)CC(=O)O)c1` [Example 72, N-[3-(3-Amidinophenyl)-2-(E)-propenyl]-N-[3-carbamoyl-4-[1-(4,5-dihydro-3H-pyrrol-2-yl)piperidin-4-yloxy]phenyl]sulfamoylacetic acid dihydrochloride] were, in that order, 9.8 nM and 4400 nM. Turning to `N=C(N)c1cccc(/C=C/CN(c2ccc(OC3CCN(C4=NCCC4)CC3)c(C(F)(F)F)c2)S(=O)(=O)CC(=O)O)c1` [Example 78, N-[3-(3-Amidinophenyl)-2-(E)-propenyl]-N-[4-[1-(4,5-dihydro-3H-pyrrol-2-yl)piperidin-4-yloxy]-3-trifluoromethylphenyl]sulfamoylacetic acid dihydrochloride], the figures for the half-inhibitory concentration (IC50) at human factor-Xa and on bovine trypsin were 11 nM and 5300 nM, respectively. The matching figures for `N=C(N)c1cccc(/C=C/CN(c2ccc(OC3CCN(C4=NCCC4)CC3)c(Cl)c2)S(=O)(=O)CC(=O)O)c1` [Example 54, N-[3-(3-Amidinophenyl)-2-(E)-propenyl]-N-[3-chloro-4-[1-(4,5-dihydro-3H-pyrrol-2-yl)piperidin-4-yloxy]phenyl]sulfamoylacetic acid dihydrochloride]: 7 nM and 2200 nM. As for `N=C(N)c1cccc(/C=C/CN(c2ccc(OC3CCN(C4=NCCCC4)CC3)c(C(F)(F)F)c2)S(=O)(=O)CC(=O)O)c1` [Example 80, N-[3-(3-Amidinophenyl)-2-(E)-propenyl]-N-[4-[1-(2,3,4,5-tetrahydropyridin-6-yl)piperidin-4-yloxy]-3-trifluoromethylphenyl]sulfamoylacetic acid dihydrochloride], the concentration for half-maximal inhibition (IC50) on human factor-Xa is 11 nM. As for `CCC(=N)N1CCC(Oc2ccc(N(C/C=C/c3cccc(C(=N)N)c3)S(=O)(=O)CC(=O)O)cc2Cl)CC1` [Example 50, N-[3-(3-Amidinophenyl)-2-(E)-propenyl]-N-[3-chloro-4-[1-(1-iminopropyl)piperidin-4-yloxy]phenyl]sulfamoylacetic acid dihydrochloride], the IC50 on human factor-Xa was found to be 6.3 nM; at bovine trypsin, 1200 nM. The matching figures for `CCOC(=O)CS(=O)(=O)N(C/C=C/c1cccc(C(=N)N)c1)c1ccc(OC2CCN(C=N)CC2)c(Cl)c1` [Example 47, Ethyl N-[3-(3-amidinophenyl)-2-(E)-propenyl]-N-[3-chloro-4-[(1-formimidoylpiperidin-4-yloxy)phenyl]sulfamoylacetatedihydrochloride]: 6.1 nM and 790 nM. For the molecule `CCOC(=O)CS(=O)(=O)N(C/C=C/c1cccc(C(=N)N)c1)c1ccc(OC2CCN(C3=NCCCC3)CC2)c(C(F)(F)F)c1` [Example 79, Ethyl N-[3-(3-amidinophenyl)-2-(E)-propenyl]-N-[4-[1-(2,3,4,5-tetrahydropyridin-6-yl)piperidin-4-yloxy]-3-trifluoromethylphenyl]sulfamoylacetate dihydrochloride], the IC50 on human factor-Xa amounted to 15 nM. The same measure, in the same setting: the figure for `CCOC(=O)CS(=O)(=O)N(C/C=C/c1cccc(C(=N)N)c1)c1ccc(OC2CCN(C3=NCCSC3)CC2)c(Cl)c1` [Example 83, Ethyl N-[3-(3-amidinophenyl)-2-(E)-propenyl]-N-[3-chloro-4-[1-(5,6-dihydro-2H-[1,4]thiazin-3-yl)piperidin-4-yloxy]phenyl]sulfamoylacetate dihydrochloride] is 13 nM; for `CN1CCC(Oc2ccc(N(C/C=C/c3cccc(C(=N)N)c3)S(=O)(=O)CC(=O)O)cc2C(F)(F)F)CC1` [Example 46, N-[3-(3-Amidinophenyl)-2-(E)-propenyl]-N-[4–1-methylpiperidin-4-yloxy)-3-trifluoromethylphenyl]sulfamoylacetic acid dihydrochloride] it is 11 nM; for `CCOC(=O)CS(=O)(=O)N(C/C=C/c1cccc(C(=N)N)c1)c1ccc(OC2CCN(C(=N)c3ccccc3)CC2)c(Cl)c1` [Example 51, Ethyl N-[3-(3-amidinophenyl)-2-(E)-propenyl]-N-[4-(1-iminophenylmethylpiperidin-4-yloxy)-3-chlorophenyl]sulfamoylacetate dihydrochloride] it is 6.9 nM. Still for that read-out and setting: the figure for `CCOC(=O)CS(=O)(=O)N(C/C=C/c1cccc(C(=N)N)c1)c1ccc(OC2CCN(C3=NCCCC3)CC2)c(C)c1` [Example 67, Ethyl N-[3-(3-amidinophenyl)-2-(E)-propenyl]-N-[3-methyl-4-[1-(2,3,4,5-tetrahydropyridin-6-yl)piperidin-4-yloxy]phenyl]sulfamoylacetate dihydrochloride] is 15 nM.
